What was measured:
[1] = tested on: CT26-hCD47 cells (mouse colon cancer cells); test: CT26-hCD47 tumor model in BALB/c-hPD1/hSIRPα mice, tumor volume; type: in vivo; conditions: 6F7H1L1(hG4) 5 mg/kg, cadonilimab 0.5 mg/kg, intraperitoneally twice per week for 4 weeks, 7 doses; vs isotype control hIgG4; FIG. 9
Source text: (§1) In order to determine the tumor inhibitory activity in vivo of 6F7H1L1(hG4) antibody in combination with anti-PD-1/anti-CTLA-4 bispecific antibody cadonilimab, female BALB/c-hPD1I/hSIRPα mice aged 6.43-8.43 weeks (purchased from GemPharmatech Co., Ltd.) were grafted subcutaneously with CT26-hCD47 cells (mouse colon cancer cells, purchased from GemPharmatech Co., Ltd.). When the mean tumor volume reached 80-120 mm^3, the mice were randomized into 4 groups of 6 by tumor volume. The day of grouping was defined as D0, and dosing was started on the day of grouping D0. The regimen of the combination therapy group is as follows: the drugs were formulated separately and administered sequentially (no certain order or time interval was required, and one treatment should be given after the completed administration of the other). After the administration, the length and width of tumors in each group were measured, and the tumor volume was calculated. The data were subjected to an independent sample T-test, SPSS 17.0 *P<0.05, **P<0.01.

[2] = CT26-hCD47 tumor model, tolerability and body weight; type: in vivo; conditions: 6F7H1L1(hG4) 5 mg/kg, cadonilimab 0.5 mg/kg, i.p.; FIG. 10
Source text: as §1

[3] = tested on: human Burkitt's lymphoma Raji-PDL1 cells; test: Immune cell activation: PBMCs co-cultured with Raji-PDL1 cells, cytokine ELISA; type: cell-based; conditions: SEB-activated PBMCs + MMC-treated Raji-PDL1 cells, 3 days; FIG. 3
Raji cells = test: ADCP: phagocytosis of Raji cells by HPMMs, combination with obinutuzumab; type: cell-based, human; conditions: HPMMs effector, Raji target cells, 37° C. 2 h; FIG. 8
Method: PBMCs (prepared by Akeso Biopharma, Inc., Lot No: 20201126-G) were thawed and incubated with 1640 complete medium+10% FBS (Excell bio, Cat. No: FSP500, Lot No: 11I025) overnight. The next day, the medium was changed to 1640 complete medium+2% FBS, and the cells were incubated with the medium for 2 h. The supernatant was removed, and the cells were washed twice with PBS and incubated in an incubator (90% 1640+10% FBS+M-CSF-100 ng/mL) to induce […] (HPMMs). The medium was exchanged and the treatment was given on days 3 and 5. The experiment was performed on day 7 of induction.
Raji cells (purchased from ATCC) were conventionally collected and washed once with PBS. CFSE was diluted to 2.5 μM with PBS. The cells were resuspended in a proper amount of the diluted CFSE to a staining density of 1×10^7 cells/mL and incubated in an incubator for 20 min. 6 mL of 1640 complete medium (containing 10% FBS) was added to stop staining. The cells were centrifuged at 170×g for 5 min, and the supernatant was discarded. 1 mL of 1640 complete medium was added, and the cells were incubated in an incubator for 10 min with the cell density adjusted to 3×10^6 cells/mL. […] 200 μL of 1% PBSA was added to each tube for resuspension, and the cells were transferred to a flow cytometry tube and detected.

[4] = tested on: hematological malignancies and solid tumors; conditions: Chao M P et al., 2016; cited from earlier work
[5] = tested on: acute myelocytic leukemia (AML) HL-60 cells; test: ADCP: phagocytosis of HL-60 cells by HPMMs, combination with azacitidine; type: cell-based, human; conditions: HPMMs effector, HL-60 target cells treated with azacitidine 3 μM or 1 μM for 24 h; antibodies 10 μg/mL and 1 μg/mL; FIG. 2
Source text: Materials: Azacitidine (purchased from Baxter Oncology GmbH); Hu5F9-G4 (supplied by Akeso Biopharma, Inc.); Raji cells (Chinese Academy of Sciences Shanghai Branch); HL-60 cells (ATCC); RPMI 1640 (Gibco, Cat. No: 22400-105); pancreatin (0.25% Typsin-EDTA (1×)) (Gibco, Cat. No: 25200072); fetal bovine serum (FBS; Excell bio, Cat. No: FSP500); fluorescent dye […] diacetatesuccinimidyl ester (CFSE; Biolegend, Cat. No: 423801); recombinant human macrophage colony-stimulating factor (human M-CSF; PeproTech, Cat. No: 300-25); APC anti-human CD11c antibody (Biolegend, Cat. No: 301614); isotype control (human IgG4; supplied by Akeso Biopharma, Inc.); rituximab (Roche); BSA (Sigma, Cat. No: V900933-1KG); Ficoll paque plus (GE, Cat. No: 17-1440-02). Human peripheral monocyte-derived macrophages (HPMMs) were prepared by inducing PBMCs. Frozen PBMCs were conventionally thawed and incubated in an incubator overnight. […]
Procedures: HL-60 cells were conventionally collected and plated in a 6-well plate at 4×10^5 cells/2 mL of 1640 complete medium per well. […] The next day, the treated and blank HL-60 cells were collected, centrifuged at 170×g for 5 min, resuspended and counted. Then the cells were analyzed for viability and washed once with PBS. […]

cadonilimab: anti-PD-1/CTLA-4 bispecific antibody; heavy chain SEQ ID NO: 78, light chain SEQ ID NO: 80 [reference compound]
inhibition of tumor growth (tumor volume) [1]: can effectively inhibit the growth of tumors in mice
tolerability in tumor-bearing mice [2]: well tolerated
secretion of IFN-γ in PBMCs [3]: can significantly stimulate the secretion of IFN-γ

obinutuzumab: anti-human CD20 antibody [reference compound]
phagocytic index (ADCP) (Raji cells): significantly higher than those of the blank control and the isotype controls (human IgG4 and human IgG1)

Hu5F9-G4: anti-CD47 monoclonal antibody drug, positive control; heavy chain SEQ ID NO: 85, light chain SEQ ID NO: 86
inhibition of growth and metastasis of tumors in preclinical studies [4]: effectively inhibits the growth and metastasis of hematological malignancies and solid tumors
phagocytic index (ADCP) [5]: significantly higher than those of the blank control and the isotype control (human IgG4)
